EC50 data for 14 molecules are collected here from patent publication US8802661B2, “C-28 amides of modified C-3 betulinic acid derivatives as HIV maturation inhibitors” (priority 2010, dated 2014).

A word on the EC50: it is the concentration giving half of the maximal effect.

The first assay relates to recombinant NL4-3 virus (Renilla luciferase in nef, Gag P373S). Briefly: HIV Cell Culture Assay (luciferase reporter virus in MT-2 cells). Type of assay: cell-based. Conditions: NL43. The method, then: MT-2 cells and 293T cells were obtained from the NIH AIDS Research and Reference Reagent Program. MT-2 cells were propagated in RPMI 1640 media supplemented with 10% heat inactivated fetal bovine serum, […]. The 293T cells were propagated in DMEM media supplemented with 10% heat inactivated fetal bovine serum (FBS), 100 units/ml penicillin G and 100 μg/ml streptomycin. The proviral DNA clone of NL4-3 was obtained from the NIH AIDS Research and Reference Reagent Program. A recombinant NL4-3 virus, in which a section of the nef gene from NL4-3 was replaced with the Renilla luciferase gene, was used as a reference virus. In addition, residue Gag P373 was converted to P373S. Briefly, the recombinant virus was prepared by transfection of the altered proviral clone of NL4-3. Transfections were performed in 293T cells using LipofectAMINE PLUS from Invitrogen (Carlsbad, Calif.), according to manufacturer's instruction. The virus was titered in MT-2 cells using luciferase enzyme activity as a marker. Luciferase was quantitated using the Dual Luciferase kit from Promega (Madison, Wis.), with modifications to the manufacturer's protocol. The diluted Passive Lysis solution was pre-mixed with the re-suspended Luciferase Assay Reagent and the re-suspended Stop & Glo Substrate (2:1:1 ratio). Fifty (50) μL of the mixture was added to each aspirated well on assay plates and luciferase activity was measured immediately on a Wallac TriLux (Perkin-Elmer). Antiviral activities of inhibitors toward the recombinant virus were quantified by measuring luciferase activity in cells infected for 4-5 days with NLRluc recombinants in the presence serial dilutions of the inhibitor. Table 1 is the key for the data in Table 2.
Regarding `C=C(C)[C@@H]1CC[C@]2(C(=O)NCCS(=O)(=O)O)CC[C@]3(C)[C@H](CC[C@@H]4[C@@]5(C)CC=C(c6ccc(C(=O)O)cc6)C(C)(C)[C@@H]5CC[C@]43C)[C@@H]12` [Example 82, sodium 4-((1R,3aS,5aR,5bR,7aR,11aS,11bR,13aR,13bR)-5a,5b,8,8,11a-pentamethyl-1-(prop-1-en-2-yl)-3a-(2-sulfonatoethylcarbamoyl)-2,3,3a,4,5,5a,5b,6,7,7a,8,11,11a,11b,12,13,13a,13b-octadecahydro-1H-cyclopenta[a]chrysen-9-yl)benzoate], the EC50 was determined as 1230 nM.

The same assay, now with this note: NL43, read-out: EC50 Group.
Take `CC(C)[C@@H]1CC[C@]2(C(=O)NCCC(=O)O)CC[C@]3(C)[C@H](CC[C@@H]4[C@@]5(C)CC[C@H](c6ccc(C(=O)O)cc6)C(C)(C)[C@@H]5CC[C@]43C)[C@@H]12` [Example 124, 4-((1S,3aS,5aR,5bR,7aS,9S,11aS,11bR,13aR,13bR)-3a-(2-carboxyethylcarbamoyl)-1-isopropyl-5a,5b,8,8,11a-pentamethylicosahydro-1H-cyclopenta[a]chrysen-9-yl)benzoic acid]: the EC50 is < 100 nM.
The same measure, in the same setting: the value for `C=C(C)[C@@H]1CC[C@]2(C(=O)NS(=O)(=O)C3CC3)CC[C@]3(C)[C@H](CC[C@@H]4[C@@]5(C)CC=C(c6ccc(C(=O)O)cc6)C(C)(C)[C@@H]5CC[C@]43C)[C@@H]12` [Example 6, 4-((1R,3aS,5aR,5bR,7aR,11aS,11bR,13aR,13bR)-3a-(cyclopropylsulfonylcarbamoyl)-5a,5b,8,8,11a-pentamethyl-1-(prop-1-en-2-yl)-2,3,3a,4,5,5a,5b,6,7,7a,8,11,11a,11b,12,13,13a,13b-octadecahydro-1H-cyclopenta[a]chrysen-9-yl)benzoic acid] was < 100 nM.
Same read-out and setting: the value for `C=C(C)[C@@H]1CC[C@]2(C(=O)NCCC(=O)N3CCC(C(=O)O)CC3)CC[C@]3(C)[C@H](CC[C@@H]4[C@@]5(C)CC=C(c6ccc(C(=O)O)cc6)C(C)(C)[C@@H]5CC[C@]43C)[C@@H]12` [Example 49, 1-(3-((1R,3aS,5aR,5bR,7aR,11aS,11bR,13aR,13bR)-9-(4-carboxyphenyl)-5a,5b,8,8,11a-pentamethyl-1-(prop-1-en-2-yl)-2,3,3a,4,5,5a,5b,6,7,7a,8,11,11a,11b,12,13,13a,13b-octadecahydro-1H-cyclopenta[a]chrysene-3a-carboxamido)propanoyl)piperidine-4-carboxylic acid] was < 100 nM; that for `C=C(C)[C@@H]1CC[C@]2(C(=O)NCc3nc4ccccc4[nH]3)CC[C@]3(C)[C@H](CC[C@@H]4[C@@]5(C)CC=C(c6ccc(C(=O)O)cc6)C(C)(C)[C@@H]5CC[C@]43C)[C@@H]12` [Example 40, 4-((1R,3aS,5aR,5bR,7aR,11aS,11bR,13aR,13bR)-3a-((1H-benzo[d]imidazol-2-yl)methylcarbamoyl)-5a,5b,8,8,11a-pentamethyl-1-(prop-1-en-2-yl)-2,3,3a,4,5,5a,5b,6,7,7a,8,11,11a,11b,12,13,13a,13b-octadecahydro-1H-cyclopenta[a]chrysen-9-yl)benzoic acid] was < 100 nM.
In the case of `C=C(C)[C@@H]1CC[C@]2(C(=O)N[C@@H](CN(C)C)C(=O)O)CC[C@]3(C)[C@H](CC[C@@H]4[C@@]5(C)CC=C(c6ccc(C(=O)O)cc6)C(C)(C)[C@@H]5CC[C@]43C)[C@@H]12` [Example 65, 4-((1R,3aS,5aR,5bR,7aR,11aS,11bR,13aR,13bR)-3a-((S)-1-carboxy-2-(dimethylamino)ethylcarbamoyl)-5a,5b,8,8,11a-pentamethyl-1-(prop-1-en-2-yl)-2,3,3a,4,5,5a,5b,6,7,7a,8,11,11a,11b,12,13,13a,13b-octadecahydro-1H-cyclopenta[a]chrysen-9-yl)benzoic acid], the EC50 was < 100 nM.
On the same count and under the same terms, next, `C=CNC(=O)[C@]12CC[C@@H](C(=C)C)[C@@H]1[C@H]1CC[C@@H]3[C@@]4(C)CC=C(c5ccc(C(=O)O)cc5)C(C)(C)[C@@H]4CC[C@@]3(C)[C@]1(C)CC2` [Example 84, 4-((1R,3aS,5aR,5bR,7aR,11aS,11bR,13aR,13bR)-5a,5b,8,8,11a-pentamethyl-1-(prop-1-en-2-yl)-3a-(vinylcarbamoyl)-2,3,3a,4,5,5a,5b,6,7,7a,8,11,11a,11b,12,13,13a,13b-octadecahydro-1H-cyclopenta[a]chrysen-9-yl)benzoic acid]: < 100 nM.
On the same count and under the same terms, next, `C=C(C)[C@@H]1CC[C@]2(C(=O)NCCc3ccc(OC)cc3)CC[C@]3(C)[C@H](CC[C@@H]4[C@@]5(C)CC=C(c6ccc(C(=O)O)cc6)C(C)(C)[C@@H]5CC[C@]43C)[C@@H]12` [Example 4, 4-((1R,3aS,5aR,5bR,7aR,11aS,11bR,13aR,13bR)-3a-(4-methoxyphenethylcarbamoyl)-5a,5b,8,8,11a-pentamethyl-1-(prop-1-en-2-yl)-2,3,3a,4,5,5a,5b,6,7,7a,8,11,11a,11b,12,13,13a,13b-octadecahydro-1H-cyclopenta[a]chrysen-9-yl)benzoic acid]: < 100 nM.
The same measure, in the same setting: the value for `CC(C)[C@@H]1CC[C@]2(C(=O)NCCN(C)C)CC[C@]3(C)[C@H](CC[C@@H]4[C@@]5(C)CC=C(c6ccc(C(=O)O)cc6)C(C)(C)[C@@H]5CC[C@]43C)[C@@H]12` [Example 78, 4-((1S,3aS,5aR,5bR,7aR,11aS,11bR,13aR,13bR)-3a-(2-(dimethylamino)ethylcarbamoyl)-1-isopropyl-5a,5b,8,8,11a-pentamethyl-2,3,3a,4,5,5a,5b,6,7,7a,8,11,11a,11b,12,13,13a,13b-octadecahydro-1H-cyclopenta[a]chrysen-9-yl)benzoic acid] was < 100 nM; that for `C=C(C)[C@@H]1CC[C@]2(C(=O)NCC(=O)O)CC[C@]3(C)[C@H](CC[C@@H]4[C@@]5(C)CC=C(c6ccc(C(=O)O)cc6)C(C)(C)[C@@H]5CC[C@]43C)[C@@H]12` [Example 62, 4-((1R,3aS,5aR,5bR,7aR,11aS,11bR,13aR,13bR)-3a-(carboxymethylcarbamoyl)-5a,5b,8,8,11a-pentamethyl-1-(prop-1-en-2-yl)-2,3,3a,4,5,5a,5b,6,7,7a,8,11,11a,11b,12,13,13a,13b-octadecahydro-1H-cyclopenta[a]chrysen-9-yl)benzoic acid] was > 100 nM; that for `C=C(C)[C@@H]1CC[C@]2(C(=O)NCCN(C)CCO)CC[C@]3(C)[C@H](CC[C@@H]4[C@@]5(C)CC=C(c6ccc(C(=O)O)cc6)C(C)(C)[C@@H]5CC[C@]43C)[C@@H]12` [Example 73, 4-((1R,3aS,5aR,5bR,7aR,11aS,11bR,13aR,13bR)-3a-(2-((2-hydroxyethyl)(methyl)amino)ethylcarbamoyl)-5a,5b,8,8,11a-pentamethyl-1-(prop-1-en-2-yl)-2,3,3a,4,5,5a,5b,6,7,7a,8,11,11a,11b,12,13,13a,13b-octadecahydro-1H-cyclopenta[a]chrysen-9-yl)benzoic acid] was < 100 nM.
On to `C=C(C)[C@@H]1CC[C@]2(C(=O)N[C@@H](CCSC)C(=O)O)CC[C@]3(C)[C@H](CC[C@@H]4[C@@]5(C)CC=C(c6ccc(C(=O)O)cc6)C(C)(C)[C@@H]5CC[C@]43C)[C@@H]12` [Example 63, 4-((1R,3aS,5aR,5bR,7aR,11aS,11bR,13aR,13bR)-3a-((S)-1-carboxy-3-(methylthio)propylcarbamoyl)-5a,5b,8,8,11a-pentamethyl-1-(prop-1-en-2-yl)-2,3,3a,4,5,5a,5b,6,7,7a,8,11,11a,11b,12,13,13a,13b-octadecahydro-1H-cyclopenta[a]chrysen-9-yl)benzoic acid], for which the EC50 was > 100 nM.
With `C=C(C)[C@@H]1CC[C@]2(C(=O)NCCNCC(=O)O)CC[C@]3(C)[C@H](CC[C@@H]4[C@@]5(C)CC=C(c6ccc(C(=O)O)cc6)C(C)(C)[C@@H]5CC[C@]43C)[C@@H]12` [Example 81, 4-((1R,3aS,5aR,5bR,7aR,11aS,11bR,13aR,13bR)-3a-(2-(carboxymethylamino)ethylcarbamoyl)-5a,5b,8,8,11a-pentamethyl-1-(prop-1-en-2-yl)-2,3,3a,4,5,5a,5b,6,7,7a,8,11,11a,11b,12,13,13a,13b-octadecahydro-1H-cyclopenta[a]chrysen-9-yl)benzoic acid], the EC50 was < 100 nM.
Take `C=C(C)[C@@H]1CC[C@]2(C(=O)NCCN3CCS(=O)(=O)CC3)CC[C@]3(C)[C@H](CC[C@@H]4[C@@]5(C)CC=C(c6ccc(C(=O)O)cc6F)C(C)(C)[C@@H]5CC[C@]43C)[C@@H]12` [Example 120, 4-((1R,3aS,5aR,5bR,7aR,11aS,11bR,13aR,13bR)-3a-((2-(1,1-dioxido-4-thiomorpholinyl)ethyl)carbamoyl)-1-isopropenyl-5a,5b,8,8,11a-pentamethyl-2,3,3a,4,5,5a,5b,6,7,7a,8,11,11a,11b,12,13,13a,13b-octadecahydro-1H-cyclopenta[a]chrysen-9-yl)-3-fluorobenzoic acid]: the EC50 was < 100 nM.
